Measurements: patent publication US12077503B2, “Substituted cyclic amides and their use as herbicides” (FMC CORPORATION, priority 2015, dated 2024)

Columns and labels:
Format in all cases: in vivo
[1] = system: wheat (Triticum aestivum); assay: Test A postemergence; details: postemergence; for Wheat plant response rating: 125 g ai/ha, visual injury rating on 0 to 100 scale (0 no effect, 100 complete control), approx. 10 d; for Plant response rating, Wheat: 500 g ai/ha, 0 to 100 scale, 0 no effect, 100 complete control
In short: (§1)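 Each rating is a visual injury score from 0 to 100 given about 10 d after treatment, judged against untreated controls kept alongside in the greenhouse. In loam soil–sand blend, seeds got a preemergence directed soil spray, while postemergence plants were 2 to 10 cm tall at spraying.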

[2] = system: pigweed (Amaranthus retroflexus); assay: Test A postemergence; details: postemergence; for Pigweed plant response rating: 125 g ai/ha, visual injury rating on 0 to 100 scale (0 no effect, 100 complete control), approx. 10 d; for Plant response rating, Pigweed: 500 g ai/ha, 0 to 100 scale, 0 no effect, 100 complete control
In short: as §1

[3] = system: ryegrass, Italian (Italian ryegrass, Lolium multiflorum); assay: Test A postemergence; details: postemergence; for Ryegrass, Italian plant response rating: 125 g ai/ha, visual injury rating on 0 to 100 scale (0 no effect, 100 complete control), approx. 10 d; for Plant response rating, Ryegrass, Italian: 500 g ai/ha, 0 to 100 scale, 0 no effect, 100 complete control
In short: as §1

[4] = system: ragweed (common ragweed, Ambrosia elatior); assay: Test A postemergence; details: postemergence; for Ragweed plant response rating: 125 g ai/ha, visual injury rating on 0 to 100 scale (0 no effect, 100 complete control), approx. 10 d; for Plant response rating, Ragweed: 500 g ai/ha, 0 to 100 scale, 0 no effect, 100 complete control
In short: as §1

[5] = system: Kochia (Kochia scoparia); assay: Test A postemergence; details: postemergence; for Kochia plant response rating: 125 g ai/ha, visual injury rating on 0 to 100 scale (0 no effect, 100 complete control), approx. 10 d; for Plant response rating, Kochia: 500 g ai/ha, 0 to 100 scale, 0 no effect, 100 complete control
In short: as §1

[6] = system: blackgrass (Alopecurus myosuroides); assay: Test A postemergence; details: postemergence; for Blackgrass plant response rating: 125 g ai/ha, visual injury rating on 0 to 100 scale (0 no effect, 100 complete control), approx. 10 d; for Plant response rating, Blackgrass: 500 g ai/ha, 0 to 100 scale, 0 no effect, 100 complete control
In short: as §1

[7] = system: corn (Zea mays); assay: Test A postemergence; details: postemergence; for Corn plant response rating: 125 g ai/ha, visual injury rating on 0 to 100 scale (0 no effect, 100 complete control), approx. 10 d; for Plant response rating, Corn: 500 g ai/ha, 0 to 100 scale, 0 no effect, 100 complete control
In short: as §1

[8] = system: Galium (catchweed bedstraw, Galium aparine); assay: Test A postemergence; details: postemergence; for Galium plant response rating: 125 g ai/ha, visual injury rating on 0 to 100 scale (0 no effect, 100 complete control), approx. 10 d; for Plant response rating, Galium: 500 g ai/ha, 0 to 100 scale, 0 no effect, 100 complete control
In short: as §1

[9] = system: barnyardgrass (Echinochloa crus-galli); assay: Test A postemergence; details: postemergence; for Barnyardgrass plant response rating: 125 g ai/ha, visual injury rating on 0 to 100 scale (0 no effect, 100 complete control), approx. 10 d; for Plant response rating, Barnyardgrass: 500 g ai/ha, 0 to 100 scale, 0 no effect, 100 complete control
In short: as §1

[10] = system: giant foxtail (Setaria faberii); assay: Test A postemergence; details: postemergence; for Foxtail, Giant plant response rating: 125 g ai/ha, visual injury rating on 0 to 100 scale (0 no effect, 100 complete control), approx. 10 d; for Plant response rating, Foxtail, Giant: 500 g ai/ha, 0 to 100 scale, 0 no effect, 100 complete control
In short: as §1

[11] = system: pigweed (Amaranthus retroflexus); assay: Test A preemergence; details: for Plant response rating, Pigweed: 125 g ai/ha, preemergence, 0 to 100 scale (0 no effect, 100 complete control); for Pigweed plant response rating (0 to 100 scale, 0 is no effect, 100 is complete control): Preemergence, 500 g ai/ha, visual injury approx. 10 d
[12] = system: ryegrass, Italian (Italian ryegrass, Lolium multiflorum); assay: Test A preemergence; details: for Plant response rating, Ryegrass, Italian: 125 g ai/ha, preemergence, 0 to 100 scale (0 no effect, 100 complete control); for Ryegrass, Italian plant response rating (0 to 100 scale, 0 is no effect, 100 is complete control): Preemergence, 500 g ai/ha, visual injury approx. 10 d
In short: as §1

[13] = system: ragweed (common ragweed, Ambrosia elatior); assay: Test A preemergence; details: for Plant response rating, Ragweed: 125 g ai/ha, preemergence, 0 to 100 scale (0 no effect, 100 complete control); for Ragweed plant response rating (0 to 100 scale, 0 is no effect, 100 is complete control): Preemergence, 500 g ai/ha, visual injury approx. 10 d
In short: as §1

[14] = system: Kochia (Kochia scoparia); assay: Test A preemergence; details: for Plant response rating, Kochia: 125 g ai/ha, preemergence, 0 to 100 scale (0 no effect, 100 complete control); for Kochia plant response rating (0 to 100 scale, 0 is no effect, 100 is complete control): Preemergence, 500 g ai/ha, visual injury approx. 10 d
In short: as §1

[15] = system: barnyardgrass (Echinochloa crus-galli); assay: Test A preemergence; details: for Plant response rating, Barnyardgrass: 125 g ai/ha, preemergence, 0 to 100 scale (0 no effect, 100 complete control); for Barnyardgrass plant response rating (0 to 100 scale, 0 is no effect, 100 is complete control): Preemergence, 500 g ai/ha, visual injury approx. 10 d
In short: as §1

[16] = system: giant foxtail (Setaria faberii); assay: Test A preemergence; details: for Plant response rating, Foxtail, Giant: 125 g ai/ha, preemergence, 0 to 100 scale (0 no effect, 100 complete control); for Foxtail, Giant plant response rating (0 to 100 scale, 0 is no effect, 100 is complete control): Preemergence, 500 g ai/ha, visual injury approx. 10 d
In short: as §1

[17] = system: sedge, umbrella (small-flower umbrella sedge, Cyperus difformis); assay: Test B flooded paddy test; details: Flood, 500 g ai/ha; 0 to 100 scale where 0 is no effect and 100 is complete control; 13 to 15 d
In short: (§2)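 Percent control, visually estimated after 13–15 d in the greenhouse on a 0–100 basis, compares treated pots with untreated ones; compound was put into paddy water 3 cm above the soil when plants had two leaves.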

[18] = system: ducksalad (Heteranthera limosa); assay: Test B flooded paddy test; details: Flood, 500 g ai/ha; 0 to 100 scale where 0 is no effect and 100 is complete control; 13 to 15 d
In short: as §2

[19] = system: barnyardgrass (Echinochloa crus-galli); assay: Test B flooded paddy test; details: Flood, 500 g ai/ha; 0 to 100 scale where 0 is no effect and 100 is complete control; 13 to 15 d
In short: as §2

[20] = system: rice (Oryra sativa); assay: Test B flooded paddy test; details: Flood, 500 g ai/ha; 0 to 100 scale where 0 is no effect and 100 is complete control; 13 to 15 d
In short: as §2

COc1c(F)ccc(NC(=O)C2C(=O)NCC2c2ccc(F)c(F)c2)c1F (stereo not drawn) [Compound 419]
80: Plant response rating, Barnyardgrass [9] | Plant response rating, Foxtail, Giant [16]
20: Plant response rating, Wheat [1] | Plant response rating, Ryegrass, Italian [3] | Kochia plant response rating [5] | Plant response rating, Kochia [5] | Plant response rating, Corn [7] | Foxtail, Giant plant response rating [10] | Pigweed plant response rating (0 to 100 scale, 0 is no effect, 100 is complete control) [11]
40: Plant response rating, Barnyardgrass [19]
0: Wheat plant response rating [1] | Pigweed plant response rating [2] | Plant response rating, Pigweed [2] | Ryegrass, Italian plant response rating [3] | Ragweed plant response rating [4] | Plant response rating, Ragweed [4] | Blackgrass plant response rating [6] | Plant response rating, Blackgrass [6] | Corn plant response rating [7] | Galium plant response rating [8] | Plant response rating, Galium [8] | Plant response rating, Pigweed [11] | Plant response rating, Ryegrass, Italian [12] | Ryegrass, Italian plant response rating (0 to 100 scale, 0 is no effect, 100 is complete control) [12] | Plant response rating, Ragweed [13] | Ragweed plant response rating (0 to 100 scale, 0 is no effect, 100 is complete control) [13] | Plant response rating, Kochia [14] | Kochia plant response rating (0 to 100 scale, 0 is no effect, 100 is complete control) [14] | Plant response rating, Sedge, Umbrella [17] | Plant response rating, Rice [20]
60: Barnyardgrass plant response rating [9] | Plant response rating, Barnyardgrass [15]
90: Plant response rating, Foxtail, Giant [10] | Barnyardgrass plant response rating (0 to 100 scale, 0 is no effect, 100 is complete control) [15] | Foxtail, Giant plant response rating (0 to 100 scale, 0 is no effect, 100 is complete control) [16]
50: Plant response rating, Ducksalad [18]

Cc1ccc(F)c(NC(=O)C2C(=O)NCC2c2cccc(OC(F)F)c2)c1 (stereo not drawn) [Compound 423]
20: Plant response rating, Ducksalad [18]
0: Wheat plant response rating [1] | Plant response rating, Wheat [1] | Pigweed plant response rating [2] | Plant response rating, Pigweed [2] | Ryegrass, Italian plant response rating [3] | Plant response rating, Ryegrass, Italian [3] | Ragweed plant response rating [4] | Plant response rating, Ragweed [4] | Kochia plant response rating [5] | Plant response rating, Kochia [5] | Blackgrass plant response rating [6] | Plant response rating, Blackgrass [6] | Corn plant response rating [7] | Plant response rating, Corn [7] | Galium plant response rating [8] | Plant response rating, Galium [8] | Barnyardgrass plant response rating [9] | Plant response rating, Barnyardgrass [9] | Foxtail, Giant plant response rating [10] | Plant response rating, Foxtail, Giant [10] | Plant response rating, Pigweed [11] | Pigweed plant response rating (0 to 100 scale, 0 is no effect, 100 is complete control) [11] | Plant response rating, Ryegrass, Italian [12] | Ryegrass, Italian plant response rating (0 to 100 scale, 0 is no effect, 100 is complete control) [12] | Plant response rating, Ragweed [13] | Ragweed plant response rating (0 to 100 scale, 0 is no effect, 100 is complete control) [13] | Plant response rating, Kochia [14] | Kochia plant response rating (0 to 100 scale, 0 is no effect, 100 is complete control) [14] | Plant response rating, Barnyardgrass [15] | Barnyardgrass plant response rating (0 to 100 scale, 0 is no effect, 100 is complete control) [15] | Plant response rating, Foxtail, Giant [16] | Foxtail, Giant plant response rating (0 to 100 scale, 0 is no effect, 100 is complete control) [16] | Plant response rating, Sedge, Umbrella [17] | Plant response rating, Barnyardgrass [19] | Plant response rating, Rice [20]

Cc1cc(NC(=O)C2C(=O)NCC2c2cccc(OC(F)F)c2)ccc1F (stereo not drawn) [Compound 424]
30: Plant response rating, Barnyardgrass [15] | Plant response rating, Ducksalad [18]
70: Plant response rating, Barnyardgrass [9] | Plant response rating, Foxtail, Giant [10] | Plant response rating, Foxtail, Giant [16]
50: Barnyardgrass plant response rating [9]
0: Wheat plant response rating [1] | Plant response rating, Wheat [1] | Pigweed plant response rating [2] | Plant response rating, Pigweed [2] | Ryegrass, Italian plant response rating [3] | Plant response rating, Ryegrass, Italian [3] | Ragweed plant response rating [4] | Plant response rating, Ragweed [4] | Kochia plant response rating [5] | Plant response rating, Kochia [5] | Blackgrass plant response rating [6] | Plant response rating, Blackgrass [6] | Corn plant response rating [7] | Plant response rating, Corn [7] | Galium plant response rating [8] | Plant response rating, Galium [8] | Plant response rating, Pigweed [11] | Pigweed plant response rating (0 to 100 scale, 0 is no effect, 100 is complete control) [11] | Plant response rating, Ryegrass, Italian [12] | Ryegrass, Italian plant response rating (0 to 100 scale, 0 is no effect, 100 is complete control) [12] | Plant response rating, Ragweed [13] | Ragweed plant response rating (0 to 100 scale, 0 is no effect, 100 is complete control) [13] | Plant response rating, Kochia [14] | Kochia plant response rating (0 to 100 scale, 0 is no effect, 100 is complete control) [14] | Plant response rating, Sedge, Umbrella [17] | Plant response rating, Barnyardgrass [19] | Plant response rating, Rice [20]
40: Foxtail, Giant plant response rating [10]
90: Barnyardgrass plant response rating (0 to 100 scale, 0 is no effect, 100 is complete control) [15] | Foxtail, Giant plant response rating (0 to 100 scale, 0 is no effect, 100 is complete control) [16]
